Laboratory results taken from the supplement of paper PMC10307832.

How the values were obtained:
Experiment in all cases: relative viability (nuclei count vs DMSO), 5 days (fraction); higher = more cells survive
Elesclomol + Navitoclax = compound: CN(NC(=O)CC(=O)NN(C)C(=S)c1ccccc1)C(=S)c1ccccc1 [Elesclomol] + CC1(C)CCC(c2ccc(Cl)cc2)=C(CN2CCN(c3ccc(C(=O)NS(=O)(=O)c4ccc(N[C@H](CCN5CCOCC5)CSc5ccccc5)c(S(=O)(=O)C(F)(F)F)c4)cc3)CC2)C1 [Navitoclax] (partner 0.5 µM)
How it was run: (§1)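 Nuclei were stained with Hoechst during a one-step fixation (final 0.05% Triton X-100, 1% formaldehyde, 1 ug/ml Hoechst) carried out 5 days after dosing, then counted on 4× images. The cells, lung cancer lines in 1536-well plates, had been dosed by pin tool the day after seeding with one drug alone or a fixed anchor-drug dose plus five library-drug doses (not always all listed) in √10 steps. Relative viability is the nuclei count in treated wells divided by that in vehicle wells, and each value is the median of duplicate plates.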

Elesclomol + Lapatinib = compound: CN(NC(=O)CC(=O)NN(C)C(=S)c1ccccc1)C(=S)c1ccccc1 [Elesclomol] + CS(=O)(=O)CCNCc1ccc(-c2ccc3ncnc(Nc4ccc(OCc5cccc(F)c5)c(Cl)c4)c3c2)o1 [Lapatinib] (partner 2 µM)
How it was run: as §1

Elesclomol + Trametinib = compound: CN(NC(=O)CC(=O)NN(C)C(=S)c1ccccc1)C(=S)c1ccccc1 [Elesclomol] + CC(=O)Nc1cccc(-n2c(=O)n(C3CC3)c(=O)c3c(Nc4ccc(I)cc4F)n(C)c(=O)c(C)c32)c1 [Trametinib] (partner 0.02 µM)
How it was run: as §1

Elesclomol + Foretinib = compound: CN(NC(=O)CC(=O)NN(C)C(=S)c1ccccc1)C(=S)c1ccccc1 [Elesclomol] + COc1cc2c(Oc3ccc(NC(=O)C4(C(=O)Nc5ccc(F)cc5)CC4)cc3F)ccnc2cc1OCCCN1CCOCC1 [Foretinib] (partner 0.25 µM)
How it was run: as §1

Elesclomol + Dasatinib = compound: CN(NC(=O)CC(=O)NN(C)C(=S)c1ccccc1)C(=S)c1ccccc1 [Elesclomol] + Cc1nc(Nc2ncc(C(=O)Nc3c(C)cccc3Cl)s2)cc(N2CCN(CCO)CC2)n1 [Dasatinib] (partner 0.075 µM)
How it was run: as §1

Row | Cell Line | relative viability (Elesclomol + Navitoclax; first compound 0.003162 µM) | relative viability (Elesclomol + Navitoclax; first compound 0.01 µM) | relative viability (Elesclomol + Navitoclax; first compound 0.03162 µM) | relative viability (Elesclomol + Navitoclax; first compound 0.1 µM) | relative viability (Elesclomol + Lapatinib; first compound 0.003162 µM) | relative viability (Elesclomol + Lapatinib; first compound 0.01 µM) | relative viability (Elesclomol + Lapatinib; first compound 0.03162 µM) | relative viability (Elesclomol + Lapatinib; first compound 0.1 µM) | relative viability (Elesclomol + Trametinib; first compound 0.003162 µM) | relative viability (Elesclomol + Trametinib; first compound 0.01 µM) | relative viability (Elesclomol + Trametinib; first compound 0.03162 µM) | relative viability (Elesclomol + Trametinib; first compound 0.1 µM) | relative viability (Elesclomol + Foretinib; first compound 0.003162 µM) | relative viability (Elesclomol + Foretinib; first compound 0.01 µM) | relative viability (Elesclomol + Foretinib; first compound 0.03162 µM) | relative viability (Elesclomol + Foretinib; first compound 0.1 µM) | relative viability (Elesclomol + Dasatinib; first compound 0.003162 µM) | relative viability (Elesclomol + Dasatinib; first compound 0.01 µM) | relative viability (Elesclomol + Dasatinib; first compound 0.03162 µM) | relative viability (Elesclomol + Dasatinib; first compound 0.1 µM)
1 | HCC-44 | 0.941 | 0.993 | 0.987 | 0.538 | 0.95 | 0.941 | 1.03 | 0.727 | 1.14 | 1.09 | 1.08 | 1.05 |  |  |  |  |  |  |  | 
2 | HCC-78 | 0.778 | 0.755 | 0.793 | 0.627 | 0.704 | 0.65 | 0.932 | 0.798 | 0.7 | 0.549 | 0.674 | 0.722 | 0.516 | 0.574 | 0.548 | 0.583 | 0.28 | 0.407 | 0.319 | 0.34
3 | HCC-366 | 1.06 | 1.07 | 1.02 | 0.137 | 1.07 | 1.06 | 0.563 | 0.015 | 0.383 | 0.311 | 0.114 | 0.0129 | 0.893 | 0.945 | 0.899 | 0.0283 | 0.596 | 0.624 | 0.542 | 0.029
4 | HCC-827 | 1.02 | 0.995 | 1 | 0.756 | 0.178 | 0.206 | 0.194 | 0.188 | 0.571 | 0.442 | 0.555 | 0.504 | 0.991 | 0.913 | 1.12 | 0.683 | 0.253 | 0.217 | 0.276 | 0.425
5 | HOP-62 | 0.904 | 0.553 | 0.647 | 0.302 | 1.17 | 0.872 | 0.811 | 0.251 | 0.397 | 0.385 | 0.386 | 0.237 | 1.12 | 0.948 | 0.677 | 0.349 | 0.678 | 0.638 | 0.458 | 0.213
6 | IA-LM | 0.415 | 0.133 | 0.0436 | 0.0194 | 0.658 | 0.201 | 0.121 | 0.0621 |  |  |  |  | 1.13 | 0.54 | 0.0372 | 0.009 |  |  |  | 
7 | LC-2-ad | 0.521 | 0.213 | 0.062 | 0.099 | 0.876 | 0.334 | 0.111 | 0.0969 | 0.888 | 0.811 | 0.272 | 0.197 | 0.697 | 0.411 | 0.267 | 0.286 | 0.492 | 0.196 | 0.202 | 0.179
8 | LCLC-103H |  |  |  |  |  |  |  |  | 0.637 | 0.671 | 0.686 | 0.683 | 0.771 | 0.768 | 0.862 | 0.487 | 0.498 | 0.344 | 0.533 | 0.399
9 | NCI-H358 |  |  |  |  | 0.272 | 0.244 | 0.209 | 0.184 | 0.107 | 0.103 | 0.0862 | 0.0746 | 0.261 | 0.182 | 0.106 | 0.1 | 0.0973 | 0.101 | 0.0734 | 0.0654
10 | NCI-H441 | 0.712 | 0.469 | 0.253 | 0.103 |  |  |  |  | 0.498 | 0.456 | 0.418 | 0.0766 | 1.07 | 0.924 | 0.513 | 0.127 | 0.547 | 0.656 | 0.451 | 0.0877
11 | NCI-H650 |  |  |  |  | 0.805 | 0.373 | 0.195 | 0.289 | 1.02 | 0.709 | 0.265 | 0.191 | 1.07 | 0.509 | 0.329 | 0.243 | 0.535 | 0.341 | 0.227 | 0.24
12 | NCI-H661 |  |  |  |  | 0.368 | 0.205 | 0.236 | 0.186 | 0.565 | 0.404 | 0.314 | 0.244 | 0.885 | 0.54 | 0.275 | 0.293 | 0.869 | 0.477 | 0.223 | 0.177
13 | NCI-H1563 |  |  |  |  | 0.625 | 0.562 | 0.601 | 0.458 |  |  |  |  | 0.727 | 0.724 | 0.617 | 0.459 | 0.447 | 0.476 | 0.413 | 0.382
14 | NCI-H1703 | 0.141 | 0.0995 | 0.116 | 0.107 | 0.262 | 0.216 | 0.157 | 0.129 |  |  |  |  | 0.26 | 0.207 | 0.129 | 0.133 |  |  |  | 
15 | NCI-H1792 | 0.608 | 0.566 | 0.504 | 0.628 | 0.867 | 0.841 | 0.807 | 0.932 | 0.367 |  | 0.366 | 0.267 |  |  |  |  | 0.951 | 0.586 | 0.612 | 0.655
16 | NCI-H2342 |  |  |  |  |  |  |  |  | 0.877 | 0.839 | 0.756 | 0.616 | 1.08 | 0.915 | 0.437 | 0.344 | 0.318 | 0.305 | 0.247 | 0.267
17 | SW 900 |  |  |  |  |  |  |  |  | 0.902 | 0.399 | 0.197 | 0.14 | 0.87 | 0.91 | 0.127 | 0.0681 | 0.626 | 0.41 | 0.144 | 0.196
